The test system of one data set is MCF-7 cells. Put plainly: Cell death estimation, cycloheximide-exposed MCF-7 cells (trypan blue). The class given is cell-based. The following applies: for Effect on percent of dead cells: cells exposed to CX for 48 hours, compared with Control not exposed to CX. The protocol:
Subconfluent cultures of MCF-7 cells in 35 mm dishes, were deprived of serum for 20 hours and then exposed to 30 μg/ml cycloheximide in the presence or absence of increasing concentrations of fractionated ATA, crude ATA or EB. After 48 hours, the cells were detached with trypsin. The medium and the detached cells were pooled and centrifuged at 1000×g for 10 mins. Cell viability was estimated by adding an equivalent volume of trypan blue solution to an aliquot of suspended cells. Stained and unstained cells were counted on a hemocytometer (10^3 cells were counted for each determination).
Subconfluent, 20 hours starved MCF-7 cells were exposed to 30 μg/ml
of cycloheximide in the presence of increasing
concentrations of fractionated ATA (0, 6, 12, 25, 50 μg/ml). After
48 hours, percent of dead cells was
determined as described under "Experimental procedures". In the
presence of cycloheximide only, 60-70% of
the cells were dead after 48 hours.
Cultures of […] cells were exposed to 30 μg CX for 48 hours in the presence of EB, ATA, IGF-1, or nothing.

For the next data set, the system named is 3T3 L1 adipocytes. Put plainly: 2-deoxyglucose uptake in 3T3 L1 adipocytes. The class given is cell-based. To be noted: 20 mins., EB, ATA 200 μg/ml, insulin 600 ng/ml. The protocol: FIG. 11 is the metabolic effects in 3T3 L1 adipocytes: Fully differentiated 3T3 L1 adipocytes were incubated with EB, ATA or fuchsin (FUCH) each at 200 μg/ml, or with 600 ng/ml of insulin for 20 mins. (A, B, C) or 5 mins. (D). CON indicates no additive.
A--2-deoxyglucose uptake. Hexose uptake was measured for 10 mins. using 50 μM 2-deoxy-(^3 H) glucose (1 μCi/ml). Non-specific uptake was determined in the presence of cytochalasin B (50 μM).

The next data set relates to cells. To be noted: apoptosis induced by growth factor deprivation or by drugs such as cycloheximide (CX); cited from earlier work.
Another data set deals with IRS-1. Put plainly: IRS-1 tyrosine phosphorylation and association with p85 in FaO cells. The class given is cell-based, rat. The following applies: 5 mins., EB 200 μg/ml, insulin 600 ng/ml. The protocol: (§1) FIG. 9 is the tyrosine phosphorylation of the IR cascade in Fao cells: A--Immunoblot analysis: Fao cells were deprived of serum for 20 hours, then incubated with EB, ATA, at 200 μg/ml or insulin at 600 ng/ml for 5 mins. Cell extracts were subjected to immunoprecipitation with antibodies to: IR β-subunit (αIR), IRS-1 (αIRS-1) and to IRS-2 (αIRS-2). The immunoprecipitates and total cell extracts were analyzed by SDS-PAGE. Proteins were transferred to nitrocellulose papers, and phosphotyrosine containing proteins were probed with anti-phosphotyrosine antibodies (αP-Tyr), antibody to the 85-kDa subunit of PI3-kinase (αp85) and antibodies to active MAPK (α active MAPK). The immunoblots were visualized by ECL (Amersham).
(§2) MCF-7 cells were grown in 35 or 100 mm dishes in DMEM with 5% bovine fetal serum. Rat hepato FaO cells were grown in RPMI 1640 medium supplemented with 10% fetal calf serum. Subconfluent monolayers of MCF-7 cells or FaO cells, were deprived of serum for 20 hours prior to each experiment. The medium was removed, and cells were incubated at 37° C. under the conditions as indicated for each experiment. […]
(§3) Nitrocellulose blots of proteins were incubated with the antibodies, and proteins were detected by enhanced chemiluminescence using horseradish peroxidase-labeled protein A, horseradish peroxidase-labeled anti rabbit IgG or horseradish peroxidase-labeled anti-mouse IgG. […]

In the next data set the test system is IRS-2. The experiment in a line: IRS-2 tyrosine phosphorylation and association with p85 in FaO cells. The following applies: 5 mins., EB 200 μg/ml, insulin 600 ng/ml. The class given is cell-based, rat. The protocol: as §1, §2, §3
The conditions of data set [1]: high doses; cited from earlier work.
In the next data set the test system is PI3-kinase. The experiment in a line: In vivo PI3-kinase activity in rat liver. The following applies: Sprague-Dawley male rats, portal vein, 5 mins. after injection, EB 20 mg/rat, insulin 1 u/rat. The protocol:
B--Induction of PI3-kinase. PI3-kinase activity, 5 mins. after injection was assayed as described in FIG. 9C. The results are representative of 2 to 4 independent experiments.
(§4) EB (20 mg/rat) or insulin (1 u/rat) was injected into about 120 g weighing Sprague-Dawley male rats, via the portal vein. Control rats were injected with saline (SAL) alone. The rats were killed and the livers excised and frozen in liquid nitrogen at the indicated times.

Data set [2] has as its system IR, IRS-1 and the 85-kDa regulatory subunit of PI3-kinase. The experiment in a line: In vivo tyrosine phosphorylation of the IR cascade in rat liver. The following applies: Sprague-Dawley male rats, portal vein injection, EB 20 mg/rat, insulin 1 u/rat. On the procedure:
A--Immunoblot analysis. Rat liver extracts were subjected to immunoprecipitation and blotting with the indicated antibodies, as described in the legend to FIG. 9A.
as §4

Another data set relates to MAPKs 1 and 2. Put plainly: Activation of MAPKs in FaO cells. The class given is cell-based, rat. To be noted: 5 mins., EB 200 μg/ml, insulin 600 ng/ml. The protocol: as §1
Nitrocellulose blots of proteins were incubated with the antibodies, and proteins were detected by enhanced chemiluminescence using horseradish peroxidase-labeled protein A, horseradish peroxidase-labeled anti rabbit IgG or horseradish peroxidase-labeled anti-mouse IgG.
In the rat hepatoma cell line FaO, EB and insulin, enhanced IRS-1 and IRS-2 tyrosine phosphorylation and their association with the 85-kDa regulatory subunit of the PI-kinase (FIG. 9A). PI3-kinase activity increases following its association with IRS-1 and IRS-2 (FIG. 9C). MAPKs 1 and 2 were activated by EB and insulin (FIG. 9A).

Converted amounts (≈) assume the structure as drawn.

Here are results for two compounds from patent US6020374A, “Biologically active synthetic dye compounds” (priority 1998, dated 2000).

As to `O=C(O)C1=CC(=C(c2ccc(O)c(C(=O)O)c2)c2ccc(O)c(C(=O)O)c2)C=CC1=O` [ATA, Aurintricarboxylic acid], the Percent dead cells with MCF-7 cells (30 μg CX, 48 hours, ATA 100 μg/ml) is listed as 8 ± 3%. The IC50 in the data set with MCF-7 cells (Homo sapiens, MCF7, starved MCF-7 cells, 30 μg/ml cycloheximide, 48 hours, read-out: IC50, concentration which inhibits 50% of cell death induced by cycloheximide) was 18 mg/L (≈ 42.6 µM). For the same compound, in the data set with MCF-7 cells, the “Effect on percent of dead cells” value is reported as “reduced the percent of dead cells to that observed in cells not exposed to CX”. In the data set on 3T3 L1 adipocytes, the Glucose uptake result is “increase glucose uptake”. Also, the “Protection of cells from apoptosis” value in the data set with cells is “protect cells from apoptosis”.
Take `Cc1cc(-c2ccc(N=Nc3ccc4c(S(=O)(=O)O)cc(S(=O)(=O)O)c(N)c4c3O)c(C)c2)ccc1N=Nc1ccc2c(S(=O)(=O)O)cc(S(=O)(=O)O)c(N)c2c1O` [EB, Evan's Blue]: the “IRS-1 tyrosine phosphorylation and association with the 85-kDa regulatory subunit of PI-kinase” value with IRS-1 is on record as “enhanced”. The “IRS-2 tyrosine phosphorylation and association with the 85-kDa regulatory subunit of PI-kinase” value in the data set with IRS-2 is recorded as “enhanced”. Besides, the “Effect on percent of dead cells” value with MCF-7 cells is “reduced the percent of dead cells to that observed in cells not exposed to CX”. Further, the Toxicity to humans entry in [1] was “non-toxic to humans at high doses”. For the same compound, the “PI3-kinase activity in liver” value in the data set with PI3-kinase is listed as “increased”. In addition, the “Tyrosine phosphorylation of IR, IRS-1 and 85-kDa subunit of PI3-kinase in liver” value in data set [2] was “phosphorylated tyrosines of IR, IRS-1 and the 85-kDa of the regulatory subunit of PI3-kinase”. Further, the “Activation of MAPKs 1 and 2” value with MAPKs 1 and 2 is reported as “activated”. For the same compound, the Glucose uptake entry in the data set on 3T3 L1 adipocytes is listed as “increase glucose uptake”.
